Laboratory results published in patent US6603062B1, “Method for producing transgenic plants with modified 5-aminolevulinic acid biosynthesis, method for identifying 5-aminolevulinic acid synthesis effectors” (Aventis CropScience GmbH, priority 1997, dated 2003).

Key:
untransformed maize line = test: Tolerance threshold of the untransformed maize line to the GSAAT inhibitor; type: in vivo; settings: for wet weight of nontransgenic plants: six days after medium change, means of 10 plants without root and seed kernel remains
Experimental: First, the tolerance threshold of the untransformed maize line over the GSAAT inhibitor 3-amino-2,3-dihydrobenzoic acid was determined. To this end, the maize seeds were surface-sterilized by washing them under sterile conditions first for 1 minute in 70% ethanol, then for 20 minutes in 5% sodium hypochlorite, 0.1% Tween 20 and subsequently six times briefly in sterile water. The seeds were then placed under sterile conditions on Murashige & Skoog medium (micro- and macronutrients, Sigma GmbH #M5524) containing 90 g/l sucrose and 8 g/l agar and grown for six days at room temperature under daylight fluorescent tubes in a 12-hour-light/12-hour-dark photoperiod until the second leaf emerged. At this stage, the plantlets were transferred to fresh medium with various concentrations of 3-amino-2,3-dihydrobenzoic acid.
After the plants had been grown for a further 10 days, the effect of the inhibitor was recorded. […] Six days after the medium was changed, the following wet weights were found for the nontransgenic plants (in each case means of 10 individual plants without root and remains of the seed kernel):
(§1) The tolerance of transgenic lines to 3-amino-2,3-dihydrobenzoic acid is determined in comparison with the nontransgenic original line. To this end, five regenerate plants per line whose size and root system visually corresponds to the above-described seedlings after six days germination are transferred to media without 3-amino-2,3-dihydrobenzoic acid (one plant) and with 100 μM 3-amino-2,3-dihydrobenzoic acid (four plants) and grown on.

[1] = tested on: transgenic maize lines with the ALAS gene; test: Tolerance of transgenic maize lines with the ALAS (hemA) gene to the GSAAT inhibitor; type: in vivo; settings: 100 μM; compared with untreated controls on medium without inhibitor
Experimental: To produce transgenic maize plants which contain an expression cassette for Rhodobacter sphaeroides hemA gene, a transformation was carried out as described in EP-A 0 469 273, with the difference that pALAS3f was employed as the DNA to be transferred. 41 independent maize transformants were obtained. Amongst these lines termed M23T1, M25T1 to M25T13 and M27T1 to M27T27, plants were regenerated as described. The presence of the complete hemA gene was detected in all transgenic plants by means of PCR using the oligodeoxynucleotides ALAS1 and ALAS2 (see Example 1) as PCR primers.
as §1

GSAAT = target: T1, GSAAT (Hordeum vulgare, UniProt P18492); settings: background, Beale (1990); cited from earlier work
T1 sequence (P18492 35-469): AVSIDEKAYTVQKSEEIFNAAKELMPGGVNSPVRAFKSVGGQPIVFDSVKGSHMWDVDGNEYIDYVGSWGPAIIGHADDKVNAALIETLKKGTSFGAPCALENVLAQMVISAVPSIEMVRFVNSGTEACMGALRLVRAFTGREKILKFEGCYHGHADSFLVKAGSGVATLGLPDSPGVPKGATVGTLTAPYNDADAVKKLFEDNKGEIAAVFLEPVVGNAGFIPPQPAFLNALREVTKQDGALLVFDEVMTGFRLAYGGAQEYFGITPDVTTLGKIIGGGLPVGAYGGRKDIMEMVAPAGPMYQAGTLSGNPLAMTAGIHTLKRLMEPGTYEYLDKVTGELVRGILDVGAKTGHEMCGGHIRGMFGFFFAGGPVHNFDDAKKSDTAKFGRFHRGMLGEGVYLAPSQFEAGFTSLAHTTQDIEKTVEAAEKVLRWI

[2] = target: T2, recombinant Hordeum vulgare GSAAT (Hordeum vulgare, UniProt P18492); test: GSAAT activity test (photometric detection of derivatized 5-aminolevulinic acid); type: biochemical; settings: pH 6.5, 20° C., read-out: concentration leading to a 50% reduction in GSAAT activity
T2 construct: The mature Hordeum vulgare GSAAT was produced recombinantly in Escherichia coli; made in house; host or cells: Escherichia coli TG1, expression plasmid pATE19 co-transformed with pGroESL
T2 sequence (P18492 35-469): T1 sequence (P18492 35-469)
Experimental: GSAAT activity was detected by a photometric detection of the derivatized reaction product 5-aminolevulinic acid. The activity test was carried out in a 96-well flat-bottom microtiter plate (F form) made of polystyrene.
It was possible to carry out the desired number of individual measurements in parallel in the wells of the microtiter plate. The following information relates in each case to one well of the microtiter plate (MTP).
At a temperature of 20° C., 100 μl of enzyme solution (25 pkat/ml recombinant Hordeum vulgare GSAAT, 250 mM Bis Tris/HCl pH 6.5) and 10 μl of 25% (v/v) dimethyl sulfoxide in water were introduced into the well. […]
Immediately after the enzymatic reaction had started, the mixture was incubated for 30 minutes at 20° C. […] After the incubation had ended, the absorption of the solution was determined immediately at a wavelength of 540 nm with the aid of a microtiter plate photometer.
To determine the enzymatically formed quantity of 5-aminolevulinic acid, the blank value (see below) was first deducted from the absorption of the mixture to be analyzed. The difference between measured value and blank value was used for calculating, with the aid of a calibration series, the concentration of 5-aminolevulinic acid in the reaction mixture at the time immediately prior to addition of the ethyl acetoacetate. […]

Lemna gibba = test: Lemna test; type: in vivo; settings: 20 μM in culture solution
Experimental: The phytotoxic action of GSAAT inhibitors was also determined in vivo by treating Lemna cultures.
To this end, Lemna gibba was cultured in sterile culture solution (0.4 g/l KNO3, 0.8 g/l CaCl2*2H2O, 0.366 g/l MgSO4*7H2O, 0.2 g/l KH2PO4, 2 ml/l solution I (2.23 g/l MnSO44H2O, 83 mg/l Kl, 2.5 mg/l CoCl2*6H2O, 0.86 g/l ZnSO4*7H2O, 2.5 mg/l CuSO4*5H2O, 0.62 g/l H3BO3, 25 mg/l Na2MoO4*2H2O) and 2 ml/l solution II(14.92 g/l Na-EDTA, 10.92 g/l FeSO4*7H2O)). In each case 3 plants were placed under sterile conditions into the a 100 ml Erlenmeyer flask which was filled with 50 ml culture solution containing the GSAAT inhibitor in a concentration of 20 μM. The culture flasks were illuminated at 25° C. with two 36 W daylight fluorescence tubes at a distance of 70 cm (24-hour light photoperiod). Growth and phenotype of the Lemna plants were observed over 7 days and compared with the growth and the phenotype of Lemna plants which had been grown in culture solution without inhibitor under otherwise identical conditions. It was characteristic of the phytotoxic effect of a GSAAT inhibitor that the newly-formed tissues were chlorotic. When light intensities were high, it was also possible for the plant tissue to become necrotic. Compounds with a rapid action frequently led to complete destruction of the plants after only one day, while the more slowly acting compounds first led to growth depression.

[3] = 100 μM, after a further 10 days

IC50 [2] | Structure (SMILES) | wet weight of nontransgenic plants (untransformed maize line; 1 μM in medium) | wet weight of nontransgenic plants (untransformed maize line; 5 μM in medium) | wet weight of nontransgenic plants (untransformed maize line; 10 μM in medium) | wet weight of nontransgenic plants (untransformed maize line; 100 μM in medium) | biomass production (untransformed maize line; [3]) | phenotype of newly-formed tissue (untransformed maize line; [3]) | phenotype of regenerated plants of the nontransgenic line (untransformed maize line; 100 μM, compared with the untreated control) | biomass production (untransformed maize line; concentration under 5 μM, after a further 10 days) | phenotype of regenerated plants of most transgenic lines [1] | effect on GSAAT (GSAAT) | plants that had died (Lemna gibba; after 72 hours) | phytotoxic effect on Lemna plants (Lemna gibba; within 48 hours)
 | NC1C=CC=C(C(=O)O)C1 (stereo not shown) [3-amino-2,3-dihydrobenzoic acid] | 4.15 g | 3.82 g | 3.12 g | 1.53 g | markedly reduced | marked chlorosis | marked chlorosis and reduced biomass production | unaltered within the normal variations | none of the regenerated plants in the presence of 100 μM 3-amino-2,3-dihydrobenzoic acid shows chloroses or reduced growth | inhibited |  | 
6 µM | NNCCCS(=O)(=O)O [compound A, hydrazinopropylsulfonic acid] |  |  |  |  |  |  |  |  |  |  | over 60% | chloroses and growth depression
